Measured values from patent US7671045B2, “17-phosphorous steroid derivatives useful as progesterone receptor modulators” (Janssen Pharmaceutica N.V., priority 2006, dated 2010).
Like-named read-outs stand apart in the source and are kept apart here.

What was measured:
[1] = tested on: T47D human breast cancer cells; test: Alkaline phosphatase assay in human breast cancer cell line T47D; type: cell-based
Method: Alkaline Phosphatase Assay in Human Breast Cancer Cell Line T47D
T47D human breast cancer cells were grown in RPMI medium without phenol red (Invitrogen) containing 10% (v/v) heat-inactivated fetal bovine serum (FBS; Hyclone), 1% (v/v) penicillin-streptomycin (Invitrogen), 1% (w/v) glutamine (Invitrogen), and […] insulin (Sigma). Incubation conditions were 37° C. in a humidified 5% (v/v) carbon dioxide environment.
The cells were plated in 96-well tissue culture plates at 10,000 cells per well in assay medium [RPMI medium without phenol red (Invitrogen) containing 5% (v/v) charcoal-treated FBS (Hyclone) and 1% (v/v) penicillin-streptomycin (Invitrogen)]. Two days later, the medium was decanted and test compound or control were added at a final concentration of 0.1% (v/v) dimethyl sulfoxide in fresh assay medium. Twenty-four hours later, an alkaline phosphatase assay was performed using a SEAP kit (BD Biosciences Clontech, Palo Alto, Calif.). Briefly, the medium was decanted and the cells were fixed for 30 minutes at room temperature with 5% (v/v) formalin (Sigma). The cells were washed once with room temperature Hank's buffered saline solution (Invitrogen). Equal volumes (0.05 mL) of 1× Dilution Buffer, Assay Buffer and 1:20 substrate/enhancer mixture were then added. After 1 hour incubation at room temperature in the dark, the lysate was transferred to a white 96-well plate (Dynex) and luminescence was read using a LuminoSkan Ascent (Thermo Electron, Woburn, Mass.).

[2] = tested on: A549 Human lung carcinoma cells; test: Transient transfection and Steady Glo luciferase assay in A549 cells with dexamethasone challenge; type: cell-based
Method: Transient Transfection and Steady Glo Luciferase Assay
A549 Human lung carcinoma cells were grown in F-12K Nutrient Mixture containing 10% (v/v) fetal bovine serum (FBS; Invitrogen), 2 mM glutamine and 0.15% […] (Invitrogen)
A549 cells were split 1 to 3 in 175 cm tissue culture flask. The cells were incubated at 37° C. in CO2 incubator until the cells were 95% confluent (typically 24-30 hours).
The following solutions were prepared in sterile tubes: (a) Solution A: 1.5 μg/ml of DNA in 8.5 ml OPTI-MEM I Reduced Serum Medium. (GIBCO cat# 31985) and (b) Solution B: 6 μl/ml of DMRIE-C Reagent into […] OPTI-MEM I. The two solutions were combined and mixed gently, then incubated at room temperature for 40 minutes.
The A549 cells prepared above were washed with […] of OPTI-MEM I. The medium was removed and 17 ml of the lipid-DNA complex solution was overlayed onto cells. The cells ere then incubated for 16 h at 37° C. in CO2 incubator. The DNA-containing medium was removed and 30 ml of growth medium was added. (5% Charcoal treated FBS) After 5-6 h, the cells were seeded in a 96 well plate and the cells incubated overnight at 37° C. in CO2 incubator.
To each well was then added 5 μl of test compounds and the cells incubated at 37° C. for 10 min. 5 μL of dexamathasone (CAS [50-02-2]), a glucocorticoid agonist, solution was then added to each well for challenger and the cells incubated at 37° C. in CO2 incubator for 24 h. 100 μl of Luc-assay buffer was then added into each cell well and the cells incubated for 30 min at room temperature. A 150 μL sample from each well was then transferred into a DYNEX Microlitel plate and read on Top-counter.

[3] = T47D cells, alkaline phosphatase readout, 24 h with test compound, read-out: T47D IC50
[4] = transfected A549 cells, luciferase readout, challenged with dexamethasone (glucocorticoid agonist), 24 h, read-out: A549 IC50
[5] = T47D, 24 h, read-out: T47D IC50 (nM)
[6] = A549, 24 h, read-out: A549 IC50 (nM)

| Compound | IC50 [1, 3] [nM] | IC50 [2, 4] [nM] | IC50 [1, 5] [nM] | IC50 [2, 6] [nM] |
| --- | --- | --- | --- | --- |
| C[C@]12C[C@H](c3ccc(P(=O)(Oc4ccccc4)Oc4ccccc4)cc3)C3=C4CCC(=O)C=C4CC[C@H]3[C@@H]1CCC2=O [Compound 33] | > 1000 | 217 | – | – |
| C[C@]12C[C@H](c3ccc(P(C)(C)=O)cc3)C3=C4CCC(=O)C=C4CC[C@H]3[C@@H]1CC[C@@]2(O)CC#N [Compound 6] | > 1000 | > 3000 | – | – |
| C=C1CCO[C@]12CC[C@H]1[C@@H]3CCC4=CC(=O)CCC4=C3[C@@H](c3ccc(P(=O)(Oc4ccccc4)Oc4ccccc4)cc3)C[C@@]12C [Compound 37] | 3.3 | 34.3 | – | – |
| CCOP(=O)(C#C[C@]1(O)CC[C@H]2[C@@H]3CCC4=CC(=O)CCC4=C3[C@@H](c3ccc(SC)cc3)C[C@@]21C)OCC [Compound 107] | – | – | 4.75 | 454 |
| CCOP(C)(=O)c1ccc([C@H]2C[C@]3(C)C(=O)CC[C@H]3[C@@H]3CCC4=CC(=O)CCC4=C32)cc1 (stereo partly drawn) [Compound 21] | – | – | – | > 3000 |
| C=C1CCO[C@]12CC[C@H]1[C@@H]3CCC4=CC(=O)CCC4=C3[C@@H](c3ccc(P(C)(C)=O)cc3)C[C@@]12C [Compound 4] | 3 | 66.2 | – | – |
| COP(=O)(OC)c1ccc([C@H]2C[C@@]3(C)[C@@H](CC[C@@]3(O)C#Cc3ccccc3)[C@@H]3CCC4=CC(=O)CCC4=C32)cc1 [Compound 31] | – | – | 7.47 | 130 |
| CN(C)c1ccc([C@H]2C[C@@]3(C)[C@@H](CC[C@@]3(O)C#CP(C)(C)=O)[C@@H]3CCC4=CC(=O)CCC4=C32)cc1 [Compound 102] | 7.3 | 70.4 | – | – |
| CCOP(=O)(C#C[C@]1(O)CC[C@H]2[C@@H]3CCC4=CC(=O)CCC4=C3[C@@H](c3ccc(OC)cc3)C[C@@]21C)OCC [Compound 108] | – | – | 6.9 | 72.2 |
| C=C1CCO[C@]12CC[C@H]1[C@@H]3CCC4=CC(=O)CCC4=C3[C@@H](c3ccc(P(=O)(c4ccccc4)c4ccccc4)cc3)C[C@@]12C [Compound 36, 19,24-Dinorchola-4,9,20-trien-3-one, 17,23-epoxy-11-[4-(diphenyl-phosphinoyl)-phenyl]-, (11β,17α)-(9Cl)] | 45 | 163 | – | – |
| C=C1CCO[C@]12CC[C@H]1[C@@H]3CCC4=CC(=O)CCC4=C3[C@@H](c3ccc(P(=O)(O)OC)cc3)C[C@@]12C [Compound 17] | – | – | > 1000 | > 3000 |
| CN(C)c1ccc([C@H]2C[C@@]3(C)[C@@H](CC[C@@]3(O)C#CP(=O)(N(C)C)N(C)C)[C@@H]3CCC4=CC(=O)CCC4=C32)cc1 [Compound 106] | 7.53 | 121 | – | – |
| C=C(C)[C@]1(O)CC[C@H]2[C@@H]3CCC4=CC(=O)CCC4=C3[C@@H](c3ccc(P(C)(C)=O)cc3)C[C@@]21C [Compound 10] | 18.3 | > 3000 | – | – |
| C[C@]12C[C@H](c3ccc(P(=O)(OCc4ccccc4)OCc4ccccc4)cc3)C3=C4CCC(=O)C=C4CC[C@H]3[C@@H]1CCC2=O [Compound 35] | 980 | 948 | – | – |
| COP(=O)(OC)c1ccc([C@H]2C[C@]3(C)C(=O)CC[C@H]3[C@@H]3CCC4=CC(=O)CCC4=C32)cc1 [Compound 15] | – | – | 8.8 | > 3000 |
| C=CC[C@]1(O)CC[C@H]2[C@@H]3CCC4=CC(=O)CCC4=C3[C@@H](c3ccc(P(C)(C)=O)cc3)C[C@@]21C [Compound 9] | 205 | > 1000 | – | – |
| C[C@]12C[C@H](c3ccc(P(C)(C)=O)cc3)C3=C4CCC(=O)C=C4CC[C@H]3[C@@H]1CCC2=O [Compound 2] | > 1000 | > 710 | – | – |
| CC#C[C@]1(O)CC[C@H]2[C@@H]3CCC4=CC(=O)CCC4=C3[C@@H](c3ccc(P(=O)(OCC)OCC)cc3)C[C@@]21C [Compound 26] | – | – | 125 | 41.5 |

| Compound | IC50 [1, 3] [nM] | IC50 [2, 4] [nM] | IC50 [1, 5] [nM] | IC50 [2, 6] [nM] |
| --- | --- | --- | --- | --- |
| CCOP(=O)(C#C[C@]1(O)CC[C@H]2[C@@H]3CCC4=CC(=O)CCC4=C3[C@@H](c3ccc(N(C)C)cc3)C[C@@]21C)OCC [Compound 101] | – | – | 1.3 | > 100 |
| C/C=C/C[C@]1(O)CC[C@H]2[C@@H]3CCC4=CC(=O)CCC4=C3[C@@H](c3ccc(P(=O)(c4ccccc4)c4ccccc4)cc3)C[C@@]21C [Compound 28] | 660 | 129 | – | – |
| C=C1CCO[C@]12CC[C@H]1[C@@H]3CCC4=CC(=O)CCC4=C3[C@@H](c3ccc(P(=O)(OCC)OCC)cc3)C[C@@]12C [Compound 3] | – | – | 12 | 238 |
| COP(=S)(C#C[C@]1(O)CC[C@H]2[C@@H]3CCC4=CC(=O)CCC4=C3[C@@H](c3ccc(N(C)C)cc3)C[C@@]21C)OC [Compound 105] | – | – | 1.44 | 55.8 |
| C=C1CCO[C@]12CC[C@H]1[C@@H]3CCC4=CC(=O)CCC4=C3[C@@H](c3ccc(P(=O)(c4ccc(Cl)cc4)c4ccc(Cl)cc4)cc3)C[C@@]12C [Compound 39, 19,24-Dinorchola-4,9,20-trien-3-one, 17,23-epoxy-11-[4-[Bis-(4-chloro-phenyl)-phosphinoyl]-phenyl]-, (11β,17α)-(9Cl)] | 20 | 143 | – | – |
| CC#C[C@]1(O)CC[C@H]2[C@@H]3CCC4=CC(=O)CCC4=C3[C@@H](c3ccc(P(=O)(c4ccccc4)c4ccccc4)cc3)C[C@@]21C [Compound 27] | 381 | 16.6 | – | – |
| C/C=C/C[C@]1(O)CC[C@H]2[C@@H]3CCC4=CC(=O)CCC4=C3[C@@H](c3ccc(P(=O)(OCC)OCC)cc3)C[C@@]21C [Compound 29] | – | – | 160 | 225 |
| C[C@]12C[C@H](c3ccc(P(=O)(OCC(F)(F)F)OCC(F)(F)F)cc3)C3=C4CCC(=O)C=C4CC[C@H]3[C@@H]1CCC2=O [Compound 32] | – | – | > 1000 | 217 |
| C=C(C)[C@]1(O)CC[C@H]2[C@@H]3CCC4=CC(=O)CCC4=C3[C@@H](c3ccc(P(=O)(OCC)OCC)cc3)C[C@@]21C [Compound 11] | – | – | 51.3 | 66.3 |
| CCOP(=O)(OCC)c1ccc([C@H]2C[C@@]3(C)[C@@H](CC[C@@]3(O)C(F)(F)C(F)(F)F)[C@@H]3CCC4=CC(=O)CCC4=C32)cc1 [Compound 8] | – | – | 170 | 168 |
| C=C1CCO[C@]12CC[C@H]1[C@@H]3CCC4=CC(=O)CCC4=C3[C@@H](c3ccc(P(=O)(OC)OC)cc3)C[C@@]12C [Compound 16] | – | – | 8.3 | 230 |
| C[C@]12C[C@H](c3ccc(P(C)(C)=O)cc3)C3=C4CCC(=O)C=C4CC[C@H]3[C@@H]1CC[C@@]2(O)C(F)(F)C(F)(F)F [Compound 7] | 8.4 | 624 | – | – |
| CCOP(=O)(OCC)c1ccc([C@H]2C[C@]3(C)C(=O)CC[C@H]3[C@@H]3CCC4=CC(=O)CCC4=C32)cc1 [Compound 1] | – | – | > 1000 | 254 |
| C[C@]12C[C@H](c3ccc(P(=O)(c4ccccc4)c4ccccc4)cc3)C3=C4CCC(=O)C=C4CC[C@H]3[C@@H]1CC[C@@]2(O)C#Cc1ccccc1 [Compound 30] | 275 | 93 | – | – |
| C=C1CCO[C@]12CC[C@H]1[C@@H]3CCC4=CC(=O)CCC4=C3[C@@H](c3ccc(P(=O)(OCC(F)(F)F)OCC(F)(F)F)cc3)C[C@@]12C [Compound 38, 19,24-Dinorchola-4,9,20-trien-3-one, 17,23-epoxy-11-[4-[Bis-(2,2,2-trifluoro-ethoxy)-phosphoryl]-phenyl]-, (11β,17α)-(9Cl)] | 29.5 | 141 | – | – |
| CN(C)c1ccc([C@H]2C[C@@]3(C)[C@@H](CC[C@@]3(O)C#CP(=O)(c3ccccc3)c3ccccc3)[C@@H]3CCC4=CC(=O)CCC4=C32)cc1 [Compound 103] | 1.57 | 41.6 | – | – |
| C=C1CCO[C@]12CC[C@H]1[C@@H]3CCC4=CC(=O)CCC4=C3[C@@H](c3ccc(P4(=O)OCC(C)(C)CO4)cc3)C[C@@]12C [Compound 23, 19,24-Dinorchola-4,9,20-trien-3-one, 17,23-epoxy-11-[4-(5,5-Dimethyl-2-oxo-2λ^5-[1,3,2]dioxaphosphinan-2-yl)-phenyl]-, (11β,17α)-(9Cl)] | 28.7 | 64.3 | – | – |
